Consider 29 molecules from patent publication US8546389B2 (priority 2010, dated 2013).

One test addresses 1b (BK) NS5bΔ21 (Hepatitis C virus genotype 1b (isolate BK) (HCV), UniProt P26663). Nature of the test: HCV polymerase inhibition assay, genotype 1b. It is filed as biochemical, HCV genotype 1b (BK). The following applies: 1b (BK) NS5bΔ21, 33P-GTP incorporation; read-out: 1b polymerase IC50 (range class). The essentials: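 Both genotype 1b and 3a enzymes assayed identically: ^33P-GTP incorporation on poly(rC) template, GTP at Km, 50 nM NS5bΔ21, pH 7.5 Tris with 5 mM MgCl2 and MnCl2, 1 h reaction ended by cold EDTA. Filter-bound label counted; IC50 fitted by non-linear regression across three-fold dilution series.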

Test [1] relates to genotype 1b (Con 1) subgenomic replicon cell line. Nature of the test: HCV replicon assay, genotype 1b (Renilla luciferase). The following applies: Hepatitis C virus; genotype 1b replicon, 72 hours, luciferase; read-out: genotype 1b EC50 (range class). It is filed as cell-based, HCV genotype 1b (Con 1). The essentials:
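Subgenomic replicon cells expressing Renilla luciferase (1b Con1; 1a and 2a lines by the same method) seeded at 7000 cells/well (5000 for 2a) without G418, exposed to 3-fold compound dilutions for 72 h at 37 °C. Luciferase activity measured; EC50 by non-linear regression.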
Background: Replicon systems follow genome replication, usually without infectious particles.

As usually defined, the IC50 is the midpoint of a concentration-inhibition curve. As usually defined, the EC50 is the concentration that produces a half-maximal response.

Sequence of 1b (BK) NS5bΔ21 (P26663 2420-2989): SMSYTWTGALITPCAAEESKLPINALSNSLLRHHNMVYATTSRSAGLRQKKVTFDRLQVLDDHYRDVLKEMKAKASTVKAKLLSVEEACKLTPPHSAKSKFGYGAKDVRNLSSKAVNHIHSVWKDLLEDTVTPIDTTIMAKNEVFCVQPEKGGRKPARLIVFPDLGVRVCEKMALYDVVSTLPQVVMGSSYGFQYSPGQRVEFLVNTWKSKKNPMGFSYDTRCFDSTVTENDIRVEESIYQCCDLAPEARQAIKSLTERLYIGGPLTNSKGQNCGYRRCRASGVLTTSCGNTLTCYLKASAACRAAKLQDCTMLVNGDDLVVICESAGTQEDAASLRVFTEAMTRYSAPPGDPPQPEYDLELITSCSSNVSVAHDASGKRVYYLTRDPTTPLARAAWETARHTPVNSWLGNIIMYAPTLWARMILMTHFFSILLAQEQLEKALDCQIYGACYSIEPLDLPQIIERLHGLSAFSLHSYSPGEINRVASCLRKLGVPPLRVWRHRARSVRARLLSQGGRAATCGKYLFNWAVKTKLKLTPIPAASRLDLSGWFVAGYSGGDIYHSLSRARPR

Regarding `CNC(=O)c1c2cc(C3CC3)c(N(CCC[S+](C)[O-])S(C)(=O)=O)cc2nn1-c1ccc(Br)cc1` (stereo not shown) [Compound 101, 2-(4-bromophenyl)-5-cyclopropyl-N-methyl-6-[3-methylsulfinylpropyl(methylsulfonyl)amino]-2H-indazole-3-carboxamide], on 1b (BK) NS5bΔ21, the IC50 was below 990 nM. Besides, in test [1], the EC50 lay within 1000 to 9990 nM.
The corresponding values for `CNC(=O)c1c2cc(C3CC3)c(N(CC3COC(C)(C)OC3)S(C)(=O)=O)cc2nn1-c1ccc(Br)cc1` [Compound 202] are below 990 nM and below 990 nM.
The corresponding values for `CNC(=O)c1c2cc(C3CC3)c(N(CCCO)S(C)(=O)=O)cc2nn1-c1ccc(OC)cc1` [Compound 55, 5-cyclopropyl-6-[(3-hydroxypropyl)(methylsulfonyl)amino]-2-(4-methoxyphenyl)-N-methyl-2H-indazole-3-carboxamide] are 1000 to 9990 nM and 1000 to 9990 nM.
Consider `CNC(=O)c1c2cc(C3CC3)c(N(CCCNC(=O)CCC(=O)O)S(C)(=O)=O)cc2nn1-c1ccc(Br)cc1` [Compound 68, 4-[(3-{[2-(4-bromophenyl)-5-cyclopropyl-3-(methylcarbamoyl)-2H-indazol-6-yl](methylsulfonyl)amino}propyl)amino]-4-oxobutanoic acid], for which, at 1b (BK) NS5bΔ21, the IC50 was below 990 nM. Also, the EC50 in test [1] lay within 10000 to 50000 nM.
The matching figures for `CNC(=O)c1c2cc(C3CC3)c(N(CCO)S(C)(=O)=O)cc2nn1-c1ccc(Br)cc1` [Compound 24]: below 990 nM and below 990 nM.
The corresponding values for `CNC(=O)c1c2cc(C3CC3)c(N(CCCC(=O)NS(=O)(=O)C(F)(F)F)S(C)(=O)=O)cc2nn1-c1ccc(Cl)cc1` [Compound 217] are below 990 nM and 1000 to 9990 nM.
The matching figures for `CNC(=O)c1c2cc(C3CC3)c(N(CCO)S(C)(=O)=O)cc2nn1-c1ccc(Nc2ccccc2F)cc1` [Compound 26]: below 990 nM and below 990 nM.
On to `CNC(=O)c1c2cc(C3CC3)c(N(CCC3COC(=O)OC3)S(C)(=O)=O)cc2nn1-c1ccc(Br)cc1` [Compound 97, 2-(4-bromophenyl)-5-cyclopropyl-N-methyl-6-{(methylsulfonyl)[2-(2-oxo-1,3-dioxan-5-yl)-ethyl]amino}-2H-indazole-3-carboxamide], for which the IC50 on 1b (BK) NS5bΔ21 was below 990 nM. The EC50 in test [1] lay in the range of 1000 to 9990 nM.
The matching figures for `CNC(=O)c1c2cc(C3CC3)c(N(CCCNC(=O)C(C)C)S(C)(=O)=O)cc2nn1-c1ccc(Cl)cc1` [Compound 242]: below 990 nM and below 990 nM.
The corresponding values for `CNC(=O)c1c2cc(C3CC3)c(N(CCCO)S(C)(=O)=O)cc2nn1-c1ccc(C)cc1` [Compound 214] are below 990 nM and below 990 nM.
The corresponding values for `CCN(c1cc2nn(-c3ccc(F)cc3)c(C(=O)NC)c2cc1OC(F)F)S(C)(=O)=O` [Compound 78, 5-(Difluoromethoxy)-6-[ethyl(methylsulfonyl)amino]-2-(4-fluorophenyl)-N-methyl-2H-indazole-3-carboxamide] are 10000 to 50000 nM and 1000 to 9990 nM.
Turning to `CNC(=O)c1c2cc(C3CC3)c(-c3c(C)noc3C)cc2nn1-c1ccc(F)cc1` [Compound 83, 5-Cyclopropyl-6-(3,5-dimethyl-1,2-oxazol-4-yl)-2-(4-fluorophenyl)-N-methyl-2H-indazole-3-carboxamide], the IC50 at 1b (BK) NS5bΔ21 was in the range of 10000 to 50000 nM. The EC50 in test [1] fell in the range of 1000 to 9990 nM.
The matching figures for `CNC(=O)c1c2cc(C3CC3)c(NS(C)(=O)=O)cc2nn1-c1ccc(Br)cc1` [Compound 1, 2-(4-bromophenyl)-5-cyclopropyl-N-methyl-6-[(methylsulfonyl)amino]-2H-indazole-3-carboxamide]: 10000 to 50000 nM and 1000 to 9990 nM.
The matching figures for `CCC(c1cc2nn(-c3ccc(C)cc3)c(C(=O)NC)c2cc1C1CC1)S(C)(=O)=O` (racemic) [Compound 86, 5-cyclopropyl-N-methyl-2-(4-methylphenyl)-6-[1-(methylsulfonyl)propyl]-2H-indazole-3-carboxamide]: 10000 to 50000 nM and 1000 to 9990 nM.
The corresponding values for `CNC(=O)c1c2cc(C3CC3)c(N(C3CCN(S(C)(=O)=O)C3)S(C)(=O)=O)cc2nn1-c1ccc(Br)cc1` (stereo not shown) [Compound 52, 2-(4-bromophenyl)-5-cyclopropyl-N-methyl-6-{(methylsulfonyl)[1-(methylsulfonyl)pyrrolidin-3-yl]amino}-2H-indazole-3-carboxamide] are below 990 nM and below 990 nM.
Regarding `CNC(=O)c1c2cc(C3CC3)c(N(CC3CC3)S(C)(=O)=O)cc2nn1-c1ccc(Cl)cc1` [Compound 246], at 1b (BK) NS5bΔ21, the IC50 was below 990 nM. In test [1], the EC50 was below 990 nM.
As for `CNC(=O)c1c2cc(C3CC3)c(N(CCO)S(C)(=O)=O)cc2nn1-c1ccc(Oc2ccc(F)cc2)cc1` [Compound 3, 5-cyclopropyl-2-[4-(4-fluorophenoxy)phenyl]-6-[(2-hydroxyethyl)-(methylsulfonyl)amino]-N-methyl-2H-indazole-3-carboxamide], at 1b (BK) NS5bΔ21, the IC50 is 1000 to 9990 nM. In addition, the EC50 in test [1] is below 990 nM.
As for `CCN(c1cc2nn(-c3ccc(F)cc3)c(C(=O)NC)c2cc1C#CC(C)(C)O)S(C)(=O)=O` [Compound 149], the IC50 on 1b (BK) NS5bΔ21 was below 990 nM. Also, the EC50 in test [1] lay in the range of 10000 to 50000 nM.
In the case of `CNC(=O)c1c2cc(C3CC3)c(N(CC(CO)CO)S(C)(=O)=O)cc2nn1-c1ccc(Br)cc1` [Compound 203], on 1b (BK) NS5bΔ21, the IC50 lay within 10000 to 50000 nM. Also, the EC50 in test [1] was 10000 to 50000 nM.
`CNC(=O)c1c2cc(C3CC3)c(N(CCNC(C)=O)S(C)(=O)=O)cc2nn1-c1ccc(Oc2ccc(F)cc2)cc1` [Compound 36]: the half-maximal inhibitory concentration (IC50) on 1b (BK) NS5bΔ21 is 1000 to 9990 nM. Besides, the EC50 in test [1] fell in the range of 1000 to 9990 nM.
Regarding `CC=Cc1cc2c(C(=O)NC)n(-c3ccc(F)cc3)nc2cc1N(CC)S(C)(=O)=O` [Compound 144], the IC50 at 1b (BK) NS5bΔ21 was in the range of 1000 to 9990 nM. For the same molecule, the EC50 in test [1] lay within 1000 to 9990 nM.
In the case of `CNC(=O)c1c2cc(C3CC3)c(N(CC(F)F)S(C)(=O)=O)cc2nn1-c1ccc(Br)cc1` [Compound 253], the IC50 at 1b (BK) NS5bΔ21 is below 990 nM. Also, in test [1], the EC50 was below 990 nM.
Consider `CNC(=O)c1c2cc(C3CC3)c(N(CCOC)S(C)(=O)=O)cc2nn1-c1ccc(Br)cc1` [Compound 232], for which the IC50 at 1b (BK) NS5bΔ21 was 1000 to 9990 nM. In test [1], the EC50 was below 990 nM.
The matching figures for `CNC(=O)c1c2cc(C3CC3)c(N(CCCNC(=O)c3ccnnc3)S(C)(=O)=O)cc2nn1-c1ccc(Br)cc1` [Compound 178]: below 990 nM and 1000 to 9990 nM.
The matching figures for `CNC(=O)c1c2cc(C3CC3)c(N(CCCC(=O)OC(C)C)S(C)(=O)=O)cc2nn1-c1ccc(Br)cc1` [Compound 220]: below 990 nM and below 990 nM.
The corresponding values for `CCN(c1cc2nn(-c3ccc(Nc4ccccc4F)cc3)c(C(=O)NC)c2cc1OC)S(C)(=O)=O` [Compound 123] are 1000 to 9990 nM and below 990 nM.
With `CNC(=O)c1c2cc(C3CC3)c(N(CCN3CCCCC3)S(C)(=O)=O)cc2nn1-c1ccc(Oc2ccc(F)cc2)cc1` [Compound 114], at 1b (BK) NS5bΔ21, the IC50 lay in the range of 1000 to 9990 nM. In test [1], the EC50 lay in the range of 1000 to 9990 nM.
Take `CNC(=O)c1c2cc(C3CC3)c(N(CCCN3C(=O)[C@H]4CCCC[C@H]4C3=O)S(C)(=O)=O)cc2nn1-c1ccc(Br)cc1` [Compound 209]: the half-maximal inhibitory concentration (IC50) at 1b (BK) NS5bΔ21 was below 990 nM. Also, the EC50 in test [1] is below 990 nM.
For the molecule `CNC(=O)c1c2cc(C3CC3)c(N(CCCN(C)S(C)(=O)=O)S(C)(=O)=O)cc2nn1-c1ccc(Br)cc1` [Compound 135], on 1b (BK) NS5bΔ21, the IC50 is below 990 nM. For the same molecule, the EC50 in test [1] was below 990 nM.
